“And” between values parts separate entries of the source, which are not always exact repeats. Equal entries are not always repeated. Inconclusive results and toxic doses are left out. Rule as the data show it: active = T/C of 150% or more; inactive = T/C below 125%.
Tested on: L1210 leukemia ip in BDF1 mice, survival T/C
Assay: NCI In Vivo Anticancer Drug Screen. Data for tumor model L1210 Leukemia (intraperitoneal) in B6D2F1 (BDF1) mice
Conditions: higher = longer survival
In short: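 Value reflects the ratio of survival in compound-treated mice to survival in vehicle-treated controls, with both groups carrying the same transplanted tumor.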

[1] = endpoint: mean survival time, dose: 50.0 mg/kg/injection, schedule: Q01DX009 (ip), vehicle: saline
[2] = endpoint: mean survival time, dose: 100.0 mg/kg/injection, schedule: Q01DX009 (ip), vehicle: saline with Tween-80
[3] = endpoint: mean survival time, dose: 200.0 mg/kg/injection, schedule: Q01DX009 (ip), vehicle: saline with Tween-80
[4] = endpoint: mean survival time, dose: 400.0 mg/kg/injection, schedule: Q01DX009 (ip), vehicle: saline with Tween-80
[5] = endpoint: mean survival time, dose: 400.0 mg/kg/injection, schedule: Q01DX001 (ip), vehicle: saline
[6] = endpoint: mean survival time, dose: 75.0 mg/kg/injection, schedule: Q01DX001 (ip), vehicle: saline
[7] = endpoint: mean survival time, dose: 150.0 mg/kg/injection, schedule: Q01DX001 (ip), vehicle: saline
[8] = endpoint: mean survival time, dose: 50.0 mg/kg/injection, schedule: Q04DX002 (ip), vehicle: gum acacia
[9] = endpoint: mean survival time, dose: 100.0 mg/kg/injection, schedule: Q04DX002 (ip), vehicle: Klucel (hydroxypropylcellulose) (HPC)
[10] = endpoint: mean survival time, dose: 200.0 mg/kg/injection, schedule: Q04DX002 (ip), vehicle: Klucel (hydroxypropylcellulose) (HPC)
[11] = endpoint: mean survival time, dose: 400.0 mg/kg/injection, schedule: Q04DX002 (ip), vehicle: Klucel (hydroxypropylcellulose) (HPC)

Measured: T/C

CCOS(C)(=O)=O
inactive: [1] 98 % of control | endpoint: mean survival time, dose: 100.0 mg/kg/injection, schedule: Q01DX009 (ip), vehicle: saline 101 % of control | endpoint: mean survival time, dose: 100.0 mg/kg/injection, schedule: Q04DX003 (ip), vehicle: alcohol 102 % of control | endpoint: mean survival time, dose: 200.0 mg/kg/injection, schedule: Q01DX009 (ip), vehicle: saline 104 % of control | endpoint: mean survival time, dose: 200.0 mg/kg/injection, schedule: Q04DX003 (ip), vehicle: alcohol 102 % of control

Cc1ccc(C(c2ccccc2)C(COS(C)(=O)=O)COS(C)(=O)=O)cc1 (stereo unspecified)
inactive: endpoint: mean survival time, dose: 75.0 mg/kg/injection, schedule: Q04DX002 (ip), vehicle: Klucel (hydroxypropylcellulose) (HPC) 90 % of control | endpoint: mean survival time, dose: 150.0 mg/kg/injection, schedule: Q04DX002 (ip), vehicle: Klucel (hydroxypropylcellulose) (HPC) 97 % of control | endpoint: mean survival time, dose: 300.0 mg/kg/injection, schedule: Q04DX002 (ip), vehicle: Klucel (hydroxypropylcellulose) (HPC) 108 % of control

COC(=O)[C@@H]1C2C=CC(C2)[C@@H]1C(=O)OC
inactive: [2] 101 % of control | [3] 104 % of control | [4] 104 % of control

CC(C(=O)c1ccccc1)C(Cl)c1ccccc1 (stereo unspecified)
inactive: [2] 102 % of control | endpoint: mean survival time, dose: 100.0 mg/kg/injection, schedule: Q04DX003 (ip), vehicle: saline with Tween-80 104 % of control | [3] 106 % of control | endpoint: mean survival time, dose: 200.0 mg/kg/injection, schedule: Q04DX003 (ip), vehicle: saline with Tween-80 107 % of control | [4] 102 % of control | endpoint: mean survival time, dose: 400.0 mg/kg/injection, schedule: Q04DX003 (ip), vehicle: saline with Tween-80 104 % of control

Cc1ccccc1OB(Oc1ccccc1C)Oc1ccccc1C
inactive: endpoint: mean survival time, dose: 100.0 mg/kg/injection, schedule: Q01DX001 (ip), vehicle: saline 101 % of control | endpoint: mean survival time, dose: 200.0 mg/kg/injection, schedule: Q01DX001 (ip), vehicle: saline 109 % of control | [5] 95 % of control

C/C=C1\C[C@@H]2C(OC)Nc3cc(O)c(OC)cc3C(=O)N2C1 (stereo partly specified)
inactive: endpoint: mean survival time, dose: 0.02 mg/kg/injection, schedule: Q01DX009 (ip), vehicle: saline 98 % of control | endpoint: mean survival time, dose: 0.04 mg/kg/injection, schedule: Q01DX009 (ip), vehicle: saline 98 % of control | endpoint: mean survival time, dose: 0.09 mg/kg/injection, schedule: Q01DX009 (ip), vehicle: saline 92 % of control | endpoint: mean survival time, dose: 0.18 mg/kg/injection, schedule: Q01DX009 (ip), vehicle: saline 101 % of control | endpoint: mean survival time, dose: 0.18 mg/kg/injection, schedule: Q04DX002 (ip), vehicle: saline 100 % of control | endpoint: mean survival time, dose: 0.37 mg/kg/injection, schedule: Q04DX002 (ip), vehicle: saline 100 % of control | endpoint: mean survival time, dose: 0.75 mg/kg/injection, schedule: Q04DX002 (ip), vehicle: saline 110 % of control

CCOC(=O)C12CCCC(C1=O)[N+](CC)(CC)CC2 (stereo unspecified)
inactive: [6] 100 % of control | [7] 101 % of control

CN(C)c1ccc(C(N)=O)cn1
inactive: endpoint: mean survival time, dose: 16.5 mg/kg/injection, schedule: Q01DX009 (ip), vehicle: saline with Tween-80 102 % of control | endpoint: mean survival time, dose: 29.0 mg/kg/injection, schedule: Q04DX003 (ip), vehicle: saline 112 % of control | endpoint: mean survival time, dose: 45.0 mg/kg/injection, schedule: Q04DX003 (ip), vehicle: saline 120 % of control | endpoint: mean survival time, dose: 66.0 mg/kg/injection, schedule: Q04DX003 (ip), vehicle: saline 113 % of control | endpoint: mean survival time, dose: 100.0 mg/kg/injection, schedule: Q04DX003 (ip), vehicle: saline 114 % of control | endpoint: mean survival time, dose: 200.0 mg/kg/injection, schedule: Q04DX003 (ip), vehicle: saline 102 % of control

COc1ccc(OC)c2c1C=CCC=C2
inactive: endpoint: mean survival time, dose: 50.0 mg/kg/injection, schedule: Q01DX009 (ip), vehicle: saline with Tween-80 95 % of control | [2] 88 % of control | endpoint: mean survival time, dose: 100.0 mg/kg/injection, schedule: Q04DX003 (ip), vehicle: acetone 117 % of control | [3] 102 % of control | endpoint: mean survival time, dose: 200.0 mg/kg/injection, schedule: Q04DX003 (ip), vehicle: acetone 94 % of control

Nc1n[nH]c2ccccc12
inactive: [8] 104 % of control | endpoint: mean survival time, dose: 100.0 mg/kg/injection, schedule: Q04DX002 (ip), vehicle: gum acacia 107 % of control | endpoint: mean survival time, dose: 200.0 mg/kg/injection, schedule: Q04DX002 (ip), vehicle: gum acacia 100 % of control

ClC1=C(Cl)C2(Cl)C(Br)C(Br)C1(Cl)C2(Cl)Cl (stereo unspecified)
inactive: endpoint: mean survival time, dose: 100.0 mg/kg/injection, schedule: Q01DX009 (ip), vehicle: saline sonified 95 % of control | endpoint: mean survival time, dose: 100.0 mg/kg/injection, schedule: Q04DX003 (ip), vehicle: Klucel (hydroxypropylcellulose) (HPC) 102 % of control | endpoint: mean survival time, dose: 200.0 mg/kg/injection, schedule: Q01DX009 (ip), vehicle: saline sonified 96 % of control | endpoint: mean survival time, dose: 200.0 mg/kg/injection, schedule: Q04DX003 (ip), vehicle: Klucel (hydroxypropylcellulose) (HPC) 93 % of control | endpoint: mean survival time, dose: 400.0 mg/kg/injection, schedule: Q01DX009 (ip), vehicle: saline sonified 95 % of control | endpoint: mean survival time, dose: 400.0 mg/kg/injection, schedule: Q04DX003 (ip), vehicle: Klucel (hydroxypropylcellulose) (HPC) 96 % of control

Cc1ccc(SCCN)cc1
inactive: [6] 105 % of control | [7] 96 % of control

CN(C)CCC(O)Cc1ccccc1 (stereo unspecified)
inactive: endpoint: mean survival time, dose: 100.0 mg/kg/injection, schedule: Q01DX009 (ip), vehicle: acetone 95 % of control | endpoint: mean survival time, dose: 200.0 mg/kg/injection, schedule: Q01DX009 (ip), vehicle: acetone 101 % of control

Fc1cccc(CSc2ncnc3nc[nH]c23)c1
inactive: endpoint: mean survival time, dose: 12.5 mg/kg/injection, schedule: Q01DX009 (ip), vehicle: saline 104 % of control | endpoint: mean survival time, dose: 25.0 mg/kg/injection, schedule: Q01DX009 (ip), vehicle: saline 119 % of control | [1] 120 % of control | endpoint: mean survival time, dose: 175.0 mg/kg/injection, schedule: Q01DX001 (ip), vehicle: saline 105 % of control and 116 % of control | endpoint: mean survival time, dose: 265.0 mg/kg/injection, schedule: Q01DX001 (ip), vehicle: saline 115 % of control | [5] 119 % of control

C/C=C/CC1(CC)C(=O)NC(=S)NC1=O
inactive: [6] 107 % of control | [7] 113 % of control

C=C1CC2(OC1=O)C(=O)N(C)c1ccccc12 (stereo unspecified)
inactive: endpoint: mean survival time, dose: 25.0 mg/kg/injection, schedule: Q04DX002 (ip), vehicle: gum acacia 101 % of control | [8] 97 % of control

NC(=O)COc1c(F)c(F)c(F)c(F)c1F
inactive: [2] 101 % of control | [3] 101 % of control | [4] 97 % of control

O=C(O)CCC(NC(=O)/C=C/c1ccc([N+](=O)[O-])cc1)C(=O)O (stereo unspecified)
inactive: [9] 107 % of control | [10] 88 % of control | [11] 91 % of control

O=C(NCc1cccc2ccccc12)Nc1ccccc1Cl
inactive: [9] 100 % of control | [10] 104 % of control | [11] 96 % of control

NCCCNCCCCNCCCN
inactive: endpoint: mean survival time, dose: 2.0 mg/kg/injection, schedule: Q01DX010 (ip), vehicle: other 103 % of control | endpoint: mean survival time, dose: 4.0 mg/kg/injection, schedule: Q01DX010 (ip), vehicle: other 103 % of control | endpoint: mean survival time, dose: 8.0 mg/kg/injection, schedule: Q01DX010 (ip), vehicle: other 97 % of control | endpoint: mean survival time, dose: 16.0 mg/kg/injection, schedule: Q01DX010 (ip), vehicle: other 92 % of control | endpoint: mean survival time, dose: 32.0 mg/kg/injection, schedule: Q01DX010 (ip), vehicle: other 97 % of control | endpoint: median survival time, dose: 6.3 mg/kg/injection, schedule: Q01DX009 (ip), vehicle: water 87 % of control and 90 % of control | endpoint: median survival time, dose: 12.5 mg/kg/injection, schedule: Q01DX009 (ip), vehicle: water 96 % of control and 100 % of control | endpoint: median survival time, dose: 25.0 mg/kg/injection, schedule: Q01DX009 (ip), vehicle: water 94 % of control and 95 % of control | endpoint: median survival time, dose: 50.0 mg/kg/injection, schedule: Q01DX009 (ip), vehicle: water 96 % of control and 100 % of control
